According to patent US11939308B2, “Biphenyl derivative compound and use thereof” (EWHA UNIVERSITY—INDUSTRY COLLABORATION FOUNDATION, priority 2018, dated 2024):

Assays:
recombinant Nm23-H1 = recombinant Nm23-H1 (Homo sapiens, UniProt P15531); experiment: NDPK assay with recombinant Nm23-H1; assay type: biochemical; parameters: NDPK activity: unit not given here; settings: for NDPK activity: 5 ng recombinant Nm23-H1, 10 min room temperature, then 5 μM ADP 1 min, compound concentration not given
Protocol: NDPK assay was performed by incubating 5 ng of recombinant Nm23-H1 with each of test compounds (Examples 1 to 3) in NDPK assay buffer (20 mM HEPES, 3 mM MgCl2) at room temperature for 10 minutes, followed by reaction with 5 μM ADP for 1 minute.

MDA-MB-231 cells [1] = experiment: Immunofluorescent staining assay (F-actin localization); assay type: cell-based; settings: Rhodamine-Phalloidin staining, various times
Protocol: MDA-MB-231 cells were grown on the Secureslip™ (Sigma) cell culture glass cover slip to a confluence of 50 to 70%, and then treated with or without the compound of Example 1 (B038) for various times. The cells were gently washed with cold HBSS, and then fixed with 4% paraformaldehyde-containing HBSS […] for 10 minutes at room temperature. After washing with HBSS, permeabilization with 0.1% Triton X-100 was performed for 10 minutes at room temperature. After washing twice with HBSS, the cells were blocked with 3% BSA, 0.2% Tween20 and 0.2% gelatin in HBSS for 1 hour at room temperature, and incubated with primary antibody at 37° C. for 2 hours. F-actin was stained by Rhodamine-Phalloidin (Thermo Fisher Scientific) for 2 hours at 37° C., followed by washing 3 times with HBSS for 20 minutes. Coverslips were mounted with an anti-fading solution and viewed using an ×63 objective lens of an LSM510 META (Zeiss) laser scanning confocal microscope.

MDA-MB-231 cells [2] = experiment: Matrigel invasion assay; assay type: cell-based; settings: Transwell with Matrigel, 24 hours at 37° C.
Protocol: Invasion assay was performed using a Transwell® unit (Corning, USA) with a polycarbonate membrane (pore size: 8 μm), with or without Matrigel coating. The membrane was coated with 50 μg Matrigel™-based membrane matrix (BD Bioscience, USA). 5×10^4 MDA-MB-231 cells were seeded into the upper chamber in a serum-free medium together with the compound of Example 1, and the lower chamber was filled with a medium containing 10% FBS. After incubation for 24 hours at 37° C., the cells on the upper side of the membrane were removed. The cells invading to the underside of the membrane were stained with 0.5% Crystal violet in 25% methanol and counted at 100-fold magnification under a microscope.

recombinant Nm23-H1, sequence (P15531 whole entry): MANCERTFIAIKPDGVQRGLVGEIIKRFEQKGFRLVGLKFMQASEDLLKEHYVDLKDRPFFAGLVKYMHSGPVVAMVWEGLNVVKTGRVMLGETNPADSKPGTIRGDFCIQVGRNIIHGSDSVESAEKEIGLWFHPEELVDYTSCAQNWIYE

SMILES	NDPK activity (recombinant Nm23-H1)	also measured
COc1ccc(CCc2ccccc2-c2ccc(OC)c(OC)c2)cc1OC [Example 1]	6.55	NDPK activity-increasing effect at various concentrations (FIG. 1) (recombinant Nm23-H1; various concentrations): excellent effect of increasing NDPK activity even at low concentrations; localization of F-actin (ruffles, cell-to-cell contact; FIG. 3) (MDA-MB-231 cells [1]): ruffles decreased and cell-to-cell contact increased; cell invasion (counting invaded cells, FIGS. 2A and 2B) (MDA-MB-231 cells [2]): significantly suppressed cell invasion
COc1ccc(-c2ccccc2C2OC2c2ccc(OC)c(OC)c2)cc1OC (centres unmarked) [Example 2, 2-(3′,4′-dimethoxy-[1,1′-biphenyl]-2-yl)-3-(3,4-dimethoxyphenyl)oxirane]	4.08	–
COc1ccc(NC(=O)c2ccccc2-c2ccc(OC)c(OC)c2)cc1OC [Example 3, N-(3,4-dimethoxyphenyl)-3′,4′-dimethoxy-[1,1′-biphenyl]-2-carboxamide]	1.32	–
COc1ccc(C(=O)Nc2ccccc2-c2ccc(OC)c(OC)c2)cc1OC [Example 4, N-(3′,4′-dimethoxy-[1,1′-biphenyl]-2-yl)-3,4-dimethoxybenzamide]	1.52	–
COc1cc(-c2ccccc2CCc2ccc(OC)c(OC)c2)ccc1O [Example 5, 2′-(3,4-dimethoxyphenethyl)-3-methoxy-[1,1′-biphenyl]-4-ol]	4	–
COc1ccc(-c2ccccc2CCc2ccc(OC)c(OC)c2)cc1O [Example 6, 2′-(3,4-dimethoxyphenethyl)-4-methoxy-[1,1′-biphenyl]-3-ol]	1.9	–
COc1ccc(CCc2ccccc2-c2ccc(OC)c(OC)c2)cc1O [Example 7, 5-(2-(3′,4′-dimethoxy-[1,1′-biphenyl]-2-yl)ethyl)-2-methoxyphenol]	3.5	–
COc1cc(CCc2ccccc2-c2ccc(OC)c(OC)c2)ccc1O [Example 10, 4-(2-(3′,4′-dimethoxy-[1,1′-biphenyl]-2-yl)ethyl)-2-methoxyphenol]	2.6	–
